Source: BigSolDB 2.1

NS(=O)(=O)Cc1noc2ccccc12
solubility (mole fraction)
Settings | 278.15 K | 283.15 K | 288.15 K | 293.15 K | 298.15 K | 303.15 K | 308.15 K | 313.15 K | 318.15 K | 323.15 K
in DMF | 0.0292 | 0.0356 | 0.0428 | 0.0514 | 0.0612 | 0.0721 | 0.0852 | 0.101 | 0.118 | 0.136
in acetonitrile | 0.00682 | 0.00802 | 0.00937 | 0.0108 | 0.0124 | 0.0142 | 0.0162 | 0.0183 | 0.0207 | 0.0233
in ethanol | 0.00139 | 0.00162 | 0.00185 | 0.00215 | 0.00245 | 0.00279 | 0.00316 | 0.00356 | 0.004 | 0.00446
in isopropanol | 0.000797 | 0.000963 | 0.00115 | 0.00137 | 0.00163 | 0.00192 | 0.00226 | 0.00264 | 0.00306 | 0.00352
in water | 1.78e-05 | 2.5e-05 | 3.43e-05 | 4.67e-05 | 6.49e-05 | 8.56e-05 | 0.000112 | 0.00015 | 0.000196 | 0.000256
